Assay [1] deals with T1, Sodium-dependent noradrenaline transporter (Homo sapiens, UniProt P23975). Description: Displacement of [3H]nisoxetine from human recombinant NET after 1.5 hrs by microbeta scintillation counting analysis. (In general: Displacement assays read how much labelled ligand stays bound in the presence of the test substance.)
Assay [2] addresses T2, 5-hydroxytryptamine receptor 6 (Homo sapiens, UniProt P50406). Description: Displacement of [3H]LSD from human recombinant 5-HT6 receptor after 1.5 hrs by microbeta scintillation counting analysis.
The target of assay [3] is Histamine H3 receptor (Homo sapiens) (UniProt Q9Y5N1). Description: Displacement of [3H]alpha-methylhistamine from human recombinant histamine H3 receptor at 10 uM after 1.5 hrs by microbeta scintillation counting analysis.
Chain of Histamine H3 receptor (Homo sapiens) (Q9Y5N1 whole entry): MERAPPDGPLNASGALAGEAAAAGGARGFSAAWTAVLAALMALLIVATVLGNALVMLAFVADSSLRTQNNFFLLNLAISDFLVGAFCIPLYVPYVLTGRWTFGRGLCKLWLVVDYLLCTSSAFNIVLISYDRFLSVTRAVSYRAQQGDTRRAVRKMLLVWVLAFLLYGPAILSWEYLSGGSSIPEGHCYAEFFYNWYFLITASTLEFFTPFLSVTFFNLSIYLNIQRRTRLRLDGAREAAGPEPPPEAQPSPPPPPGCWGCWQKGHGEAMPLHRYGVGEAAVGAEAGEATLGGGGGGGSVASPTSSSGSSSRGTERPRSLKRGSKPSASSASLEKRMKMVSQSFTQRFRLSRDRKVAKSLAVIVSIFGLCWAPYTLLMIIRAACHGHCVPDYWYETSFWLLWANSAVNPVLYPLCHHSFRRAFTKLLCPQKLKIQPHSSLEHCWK
The target in assay [4] is Muscarinic acetylcholine receptor M4 (Homo sapiens) (UniProt P08173). Description: Displacement of [3H]QNB from human recombinant muscarinic M4 receptor at 10 uM after 1.5 hrs by microbeta scintillation counting analysis.
Assay [5] has as its target Muscarinic acetylcholine receptor M2 (Homo sapiens) (UniProt P08172). Description: Displacement of [3H]QNB from human recombinant muscarinic M2 receptor at 10 uM after 1.5 hrs by microbeta scintillation counting analysis.
The target in assay [6] is Muscarinic acetylcholine receptor M1 (Homo sapiens) (UniProt P11229). Description: Displacement of [3H]QNB from human recombinant muscarinic M1 receptor at 10 uM after 1.5 hrs by microbeta scintillation counting analysis.
Chain of Muscarinic acetylcholine receptor M1 (Homo sapiens) (P11229 whole entry): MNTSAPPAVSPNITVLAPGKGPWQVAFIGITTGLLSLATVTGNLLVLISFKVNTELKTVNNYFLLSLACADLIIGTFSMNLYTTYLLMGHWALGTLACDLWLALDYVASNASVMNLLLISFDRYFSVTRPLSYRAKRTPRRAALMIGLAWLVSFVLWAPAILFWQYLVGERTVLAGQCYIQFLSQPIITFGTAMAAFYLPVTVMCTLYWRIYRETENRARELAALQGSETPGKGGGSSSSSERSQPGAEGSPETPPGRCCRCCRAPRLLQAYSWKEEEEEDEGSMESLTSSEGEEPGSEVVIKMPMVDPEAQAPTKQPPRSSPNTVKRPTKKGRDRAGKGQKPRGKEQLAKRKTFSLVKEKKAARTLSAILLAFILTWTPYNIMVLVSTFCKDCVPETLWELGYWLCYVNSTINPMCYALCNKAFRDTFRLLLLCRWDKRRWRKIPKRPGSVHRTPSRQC
In assay [7] the target is Beta-3 adrenergic receptor (Homo sapiens) (UniProt P13945). Description: Displacement of [125I]Iodopindolol from beta 3 adrenergic receptor at 10 uM after 1.5 hrs by microbeta scintillation counting analysis.
Chain of Beta-3 adrenergic receptor (Homo sapiens) (P13945 whole entry, looked up): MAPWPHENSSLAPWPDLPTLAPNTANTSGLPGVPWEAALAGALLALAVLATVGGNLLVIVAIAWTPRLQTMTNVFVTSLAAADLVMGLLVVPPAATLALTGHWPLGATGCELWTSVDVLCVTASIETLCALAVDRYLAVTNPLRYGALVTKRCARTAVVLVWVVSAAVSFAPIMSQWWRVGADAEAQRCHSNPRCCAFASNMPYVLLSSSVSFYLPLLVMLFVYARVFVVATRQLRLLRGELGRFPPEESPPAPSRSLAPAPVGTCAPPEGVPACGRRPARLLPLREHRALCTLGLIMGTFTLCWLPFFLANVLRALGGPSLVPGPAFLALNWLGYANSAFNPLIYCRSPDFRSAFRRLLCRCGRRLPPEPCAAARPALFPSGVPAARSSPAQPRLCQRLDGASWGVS
For assay [8], the target named is Alpha-2B adrenergic receptor (Homo sapiens) (UniProt P18089). Description: Displacement of [3H]clonidine from human recombinant alpha 2B adrenergic receptor at 10 uM after 40 mins by microbeta scintillation counting analysis.
In assay [9] the target is Alpha-1D adrenergic receptor (Homo sapiens) (UniProt P25100). Description: Inhibitory activity against alpha 1D adrenergic receptor at 10 uM.
Chain of Alpha-1D adrenergic receptor (Homo sapiens) (P25100 whole entry): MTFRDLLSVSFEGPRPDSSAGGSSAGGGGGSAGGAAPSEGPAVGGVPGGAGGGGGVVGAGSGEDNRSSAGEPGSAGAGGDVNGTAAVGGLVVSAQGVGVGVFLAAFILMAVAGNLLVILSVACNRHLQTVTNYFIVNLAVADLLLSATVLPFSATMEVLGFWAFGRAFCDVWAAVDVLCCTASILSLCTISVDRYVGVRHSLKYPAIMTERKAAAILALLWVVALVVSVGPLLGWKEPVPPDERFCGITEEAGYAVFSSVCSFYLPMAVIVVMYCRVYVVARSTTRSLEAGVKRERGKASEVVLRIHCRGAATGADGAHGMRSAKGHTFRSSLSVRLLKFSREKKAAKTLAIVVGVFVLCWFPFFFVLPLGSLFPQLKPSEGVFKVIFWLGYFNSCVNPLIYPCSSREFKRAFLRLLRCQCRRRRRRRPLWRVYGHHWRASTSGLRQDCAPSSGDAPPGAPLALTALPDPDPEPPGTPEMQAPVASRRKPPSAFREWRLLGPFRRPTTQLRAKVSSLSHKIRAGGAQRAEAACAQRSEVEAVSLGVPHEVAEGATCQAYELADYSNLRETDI
In assay [10] the target is Alpha-1A adrenergic receptor (Homo sapiens) (UniProt P35348). Description: Displacement of [3H]prazosin from alpha 1A adrenergic receptor at 10 uM after 1 hr by microbeta scintillation counting analysis.
Chain of Alpha-1A adrenergic receptor (Homo sapiens) (P35348 whole entry): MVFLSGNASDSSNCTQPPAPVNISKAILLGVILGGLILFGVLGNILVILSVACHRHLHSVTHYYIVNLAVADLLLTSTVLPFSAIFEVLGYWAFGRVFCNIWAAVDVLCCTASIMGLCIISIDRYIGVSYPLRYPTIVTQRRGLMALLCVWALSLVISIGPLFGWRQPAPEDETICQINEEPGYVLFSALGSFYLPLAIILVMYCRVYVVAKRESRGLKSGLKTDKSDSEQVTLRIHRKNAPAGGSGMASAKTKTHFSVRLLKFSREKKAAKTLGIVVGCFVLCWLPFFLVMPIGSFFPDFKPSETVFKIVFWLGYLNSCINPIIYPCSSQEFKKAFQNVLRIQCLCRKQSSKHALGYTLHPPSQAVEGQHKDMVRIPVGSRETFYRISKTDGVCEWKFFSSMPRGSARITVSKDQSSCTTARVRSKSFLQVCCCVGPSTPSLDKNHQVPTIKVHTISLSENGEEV
Assay [11] deals with T1, Sodium-dependent noradrenaline transporter. Description: Displacement of [3H]nisoxetine from human recombinant NET at 10 uM after 1.5 hrs by microbeta scintillation counting analysis.
Assay [12] addresses D(1B) dopamine receptor (Homo sapiens) (UniProt P21918). Description: Displacement of [3H]SCH23390 from human recombinant D5 receptor at 10 uM after 1.5 hrs by microbeta scintillation counting analysis.
For assay [13], the target named is D(2) dopamine receptor (Homo sapiens) (UniProt P14416). Description: Displacement of [3H]N-methylspiperone from human recombinant D2 receptor at 10 uM after 1.5 hrs by microbeta scintillation counting analysis.
Chain of D(2) dopamine receptor (Homo sapiens) (P14416 whole entry): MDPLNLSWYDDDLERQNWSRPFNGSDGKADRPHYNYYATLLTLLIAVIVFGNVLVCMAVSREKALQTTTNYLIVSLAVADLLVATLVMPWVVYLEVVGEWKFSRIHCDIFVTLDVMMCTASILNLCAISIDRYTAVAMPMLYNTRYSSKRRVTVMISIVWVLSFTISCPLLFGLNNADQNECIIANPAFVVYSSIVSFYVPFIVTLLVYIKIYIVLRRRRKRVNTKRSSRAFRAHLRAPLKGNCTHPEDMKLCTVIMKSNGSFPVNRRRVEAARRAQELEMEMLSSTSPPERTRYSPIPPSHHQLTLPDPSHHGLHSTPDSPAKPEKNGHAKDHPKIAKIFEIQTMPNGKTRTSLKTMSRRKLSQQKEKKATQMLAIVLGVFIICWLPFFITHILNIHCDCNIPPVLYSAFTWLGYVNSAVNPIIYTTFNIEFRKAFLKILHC
Assay [14] addresses T2, 5-hydroxytryptamine receptor 6. Description: Displacement of [3H]LSD from human recombinant 5-HT6 receptor at 10 uM after 1.5 hrs by microbeta scintillation counting analysis.
The target in assay [15] is 5-hydroxytryptamine receptor 1A (Homo sapiens) (UniProt P08908). Description: Displacement of [3H]-8-OH-DPAT from human recombinant 5-HT1A receptor at 10 uM after 1.5 hrs by microbeta scintillation counting analysis.
Chain of 5-hydroxytryptamine receptor 1A (Homo sapiens) (P08908 whole entry): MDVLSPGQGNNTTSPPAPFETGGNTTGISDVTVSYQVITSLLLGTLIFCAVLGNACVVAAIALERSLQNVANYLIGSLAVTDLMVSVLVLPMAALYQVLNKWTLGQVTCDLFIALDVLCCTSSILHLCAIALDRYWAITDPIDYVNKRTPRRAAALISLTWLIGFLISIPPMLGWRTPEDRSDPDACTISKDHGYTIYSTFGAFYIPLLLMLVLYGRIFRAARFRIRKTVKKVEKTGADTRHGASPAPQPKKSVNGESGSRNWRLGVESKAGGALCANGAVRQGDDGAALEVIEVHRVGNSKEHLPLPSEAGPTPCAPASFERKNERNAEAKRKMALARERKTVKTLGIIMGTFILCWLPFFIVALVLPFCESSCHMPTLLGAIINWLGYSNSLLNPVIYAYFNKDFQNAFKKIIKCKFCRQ
Assay [16] addresses Neuronal acetylcholine receptor; alpha4/beta4 (Homo sapiens) (UniProt P30926+P43681). Description: Displacement of [3H]epibatidine from alpha4beta4 nAChR at 10 uM after 4 hrs by liquid scintillation counting analysis. Type of assay: protein-complex assay.
Assay [17] addresses Neuronal acetylcholine receptor; alpha4/beta2 (Rattus norvegicus) (UniProt P09483+P12390). Description: Displacement of [3H]epibatidine from alpha4beta2* nAChR in rat forebrain at 10 uM after 4 hrs by liquid scintillation counting analysis.
The target of assay [18] is Neuronal acetylcholine receptor; alpha4/beta2 (Homo sapiens) (UniProt P17787+P43681). Description: Displacement of [3H]epibatidine from alpha4beta2 nAChR at 10 uM after 4 hrs by liquid scintillation counting analysis. Type of assay: protein-complex assay.
In assay [19] the target is Neuronal acetylcholine receptor; alpha3/beta4 (Homo sapiens) (UniProt P30926+P32297). Description: Displacement of [3H]epibatidine from alpha3beta4 nAChR at 10 uM after 4 hrs by liquid scintillation counting analysis. Type of assay: protein-complex assay.
The target of assay [20] is Neuronal acetylcholine receptor; alpha3/beta2 (Homo sapiens) (UniProt P17787+P32297). Description: Displacement of [3H]epibatidine from alpha3beta2 nAChR at 10 uM after 4 hrs by liquid scintillation counting analysis. The class given is protein-complex assay.
The target of assay [21] is Neuronal acetylcholine receptor; alpha2/beta4 (Homo sapiens) (UniProt P30926+Q15822). Description: Displacement of [3H]epibatidine from alpha2beta4 nAChR at 10 uM after 4 hrs by liquid scintillation counting analysis. Type of assay: protein-complex assay.
Assay [22] addresses Neuronal acetylcholine receptor; alpha2/beta2 (Homo sapiens) (UniProt P17787+Q15822). Description: Displacement of [3H]epibatidine from alpha2beta2 nAChR at 10 uM after 4 hrs by liquid scintillation counting analysis. Type of assay: protein-complex assay.
The nature of assay [23]: Selectivity ratio of Ki for human recombinant NET to Ki for sigma 1 receptor in rat brain membrane. The class given is cell membranes.
The nature of assay [24]: Selectivity ratio of Ki for human recombinant DAT to Ki for sigma 1 receptor in rat brain membrane. Type of assay: cell membranes.
The next assay has as its target Histamine H2 receptor (Homo sapiens, UniProt P25021). Description: Displacement of [3H]tiotidine from human recombinant histamine H2 receptor after 1.5 hrs by microbeta scintillation counting analysis.
The next assay deals with Histamine H1 receptor (Homo sapiens, UniProt P35367). Description: Displacement of [3H]pyrilamine from human recombinant histamine H1 receptor after 1.5 hrs by microbeta scintillation counting analysis.
Assay [25] addresses Beta-2 adrenergic receptor (Homo sapiens, UniProt P07550). Description: Displacement of [125I]Iodopindolol from beta 2 adrenergic receptor after 1.5 hrs by microbeta scintillation counting analysis.
Assay [26] concerns the target 5-hydroxytryptamine receptor 2B (Homo sapiens, UniProt P41595). Description: Displacement of [3H]LSD from human recombinant 5-HT2B receptor after 1.5 hrs by microbeta scintillation counting analysis.

T2 sequence (P50406 whole entry): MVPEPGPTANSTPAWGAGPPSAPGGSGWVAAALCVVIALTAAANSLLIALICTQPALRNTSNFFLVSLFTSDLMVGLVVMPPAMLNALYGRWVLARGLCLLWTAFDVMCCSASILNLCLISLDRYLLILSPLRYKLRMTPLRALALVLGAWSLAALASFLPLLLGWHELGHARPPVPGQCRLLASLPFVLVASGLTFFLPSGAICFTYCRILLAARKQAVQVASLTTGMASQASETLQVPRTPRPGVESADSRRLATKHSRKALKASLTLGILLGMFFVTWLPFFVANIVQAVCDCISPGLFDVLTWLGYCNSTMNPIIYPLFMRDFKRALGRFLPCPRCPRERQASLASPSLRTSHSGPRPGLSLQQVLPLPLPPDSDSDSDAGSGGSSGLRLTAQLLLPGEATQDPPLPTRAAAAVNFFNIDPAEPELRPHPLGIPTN
T1 sequence (P23975 whole entry): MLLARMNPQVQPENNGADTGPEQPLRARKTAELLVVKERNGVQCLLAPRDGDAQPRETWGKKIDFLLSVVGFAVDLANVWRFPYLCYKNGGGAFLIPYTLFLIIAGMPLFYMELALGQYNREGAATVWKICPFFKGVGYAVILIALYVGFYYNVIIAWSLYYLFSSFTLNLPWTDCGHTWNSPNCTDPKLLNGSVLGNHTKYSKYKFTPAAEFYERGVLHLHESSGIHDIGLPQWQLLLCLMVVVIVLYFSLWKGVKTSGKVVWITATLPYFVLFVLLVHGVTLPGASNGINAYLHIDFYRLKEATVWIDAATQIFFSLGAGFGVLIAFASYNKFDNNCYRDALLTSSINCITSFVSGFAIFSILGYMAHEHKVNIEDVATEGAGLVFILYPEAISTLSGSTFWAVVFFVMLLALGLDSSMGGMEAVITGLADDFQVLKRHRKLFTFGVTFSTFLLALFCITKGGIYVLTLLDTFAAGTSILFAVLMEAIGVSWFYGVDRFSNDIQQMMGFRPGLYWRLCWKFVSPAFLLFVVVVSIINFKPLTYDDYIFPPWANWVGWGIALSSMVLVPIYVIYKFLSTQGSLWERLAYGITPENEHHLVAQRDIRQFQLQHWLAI
Chain of D(1B) dopamine receptor (Homo sapiens) (P21918 whole entry): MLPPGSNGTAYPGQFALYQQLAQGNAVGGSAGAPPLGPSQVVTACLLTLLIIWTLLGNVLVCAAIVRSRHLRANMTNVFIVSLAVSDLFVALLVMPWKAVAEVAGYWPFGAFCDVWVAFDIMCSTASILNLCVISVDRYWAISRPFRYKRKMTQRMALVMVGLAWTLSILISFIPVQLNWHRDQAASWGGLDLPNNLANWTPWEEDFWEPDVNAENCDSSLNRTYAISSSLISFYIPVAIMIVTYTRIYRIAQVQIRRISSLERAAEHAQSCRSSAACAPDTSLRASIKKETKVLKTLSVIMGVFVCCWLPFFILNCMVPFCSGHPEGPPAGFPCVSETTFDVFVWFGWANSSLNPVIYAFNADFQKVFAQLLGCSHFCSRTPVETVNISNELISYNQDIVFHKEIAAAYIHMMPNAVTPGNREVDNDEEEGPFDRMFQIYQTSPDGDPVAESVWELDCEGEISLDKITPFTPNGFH

As for `c1ccc(OCc2cc(OC[C@@H]3CCN3)no2)cc1`, the Ki was 0.191 µM in assay [1] and over 10 µM in assay [2]. The Efficacy was 4.7% in [3]; 35.1% in assay [4]; 12.6% in assay [5]; 5.7% in assay [6]; -1.5% in assay [7]; 34.8% in assay [8]. In addition, the Efficacy in assay [9] worked out at 22.4%; in assay [10], 17.5%; in assay [11] it was 97.2%; in assay [12] it was 4.9%; in assay [13], 22.9%; in assay [14] it was 51.6%. Besides, the Efficacy in assay [15] was determined as 26.3%.

As for `c1ccc(OCc2cc(OC[C@@H]3CCCN3)no2)cc1`, the Activity in [16], in assay [17], in assay [18], in assay [19], in assay [20] and in assay [21] was under 50% each time. Also, in assay [22], the Activity is under 50%. The Ratio Ki came to 50 in assay [23] and 90 in assay [24]. Further, the Ki was 0.203 µM in [1]; 5.16 µM at Histamine H2 receptor; over 10 µM on Histamine H1 receptor; over 10 µM in [25]; 5.1 µM in assay [26]. Besides, the Efficacy in [3] was -4.9%; in assay [4], 33.6%; in assay [5], 11.8%; in [6], 4.4%; in [7], 7.2%; in [8], 44.4%. Also, the Efficacy in assay [9] turned out to be 25.2%; in [10] it was 21%; in assay [11] it was 95.9%; in assay [12], 36.5%; in [13], 23.9%; in assay [14], 28.3%. Further, the Efficacy in [15] was 34.4%.

In general, Ki refers to the equilibrium dissociation constant of an inhibitor or competing ligand from its target.

(Values after ChEMBL document CHEMBL2203055, “From α4β2 Nicotinic Ligands to the Discovery of σ1 Receptor Ligands: Pharmacophore Analysis and Rational Design” (ACS Med Chem Lett, 2012).)
